In PubChem BioAssay (NCI) one finds GI50 and TGI data, which are given here for 2 compounds.

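Compound exposure: 48 hours, 5 concentrations, 96-well plates. GI50 is the concentration that inhibits growth by half. TGI is the concentration that stops growth completely.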

Among the test systems are SF-539 CNS; RPMI-8226 leukemia; ACHN renal; OVCAR-4 ovarian; NCI-H460 lung; CCRF-CEM leukemia; HOP-62 NSCLC; EKVX NSCLC; K-562 leukemia; SW-620 colon.
Test in all cases: NCI-60 cell line screen, 48 h

`C[C@@]12CC=C3c4nc(Nc5cccc(O)c5)sc4CC[C@]3(C)[C@H]1CC[C@]1(C)C(=O)CC[C@@H]21`: the GI50 in the assay with SF-539 CNS was 0.387 µM; in the assay on RPMI-8226 leukemia it was 0.669 µM; in the assay on ACHN renal, 2.27 µM; in the assay on OVCAR-4 ovarian, 2.76 µM; in the assay on NCI-H460 lung, 2.66 µM; in the assay on CCRF-CEM leukemia it was 1.83 µM. Also, the GI50 with HOP-62 NSCLC was 2.75 µM; in the assay with EKVX NSCLC, 5.93 µM; in the assay on K-562 leukemia, 2.53 µM; in the assay with SW-620 colon, 2.13 µM. For the same compound, the TGI with SF-539 CNS was 1.52 µM; with RPMI-8226 leukemia, 4.52 µM; with ACHN renal, 5.45 µM; with OVCAR-4 ovarian it was > 100 µM; in the assay on NCI-H460 lung, 7.25 µM; in the assay with CCRF-CEM leukemia it was > 100 µM. In addition, the TGI in the assay on HOP-62 NSCLC was 8.12 µM; with EKVX NSCLC it was 83.3 µM; in the assay on K-562 leukemia, > 100 µM; in the assay on SW-620 colon, 4.82 µM.
As to `COC(=O)[C@H](C)NC(=O)NC(=O)NC(=O)CI`, the GI50 with SF-539 CNS was 15.9 µM; in the assay on RPMI-8226 leukemia it was 3.64 µM; with ACHN renal, 6.76 µM; in the assay on OVCAR-4 ovarian, 11.6 µM; in the assay with NCI-H460 lung, 20.1 µM; with CCRF-CEM leukemia, 2.03 µM. For the same compound, the GI50 was 17.2 µM in the assay on HOP-62 NSCLC, 17.5 µM in the assay on EKVX NSCLC, 4.16 µM in the assay on K-562 leukemia and 16.5 µM in the assay with SW-620 colon. Also, the TGI in the assay with SF-539 CNS was determined as 30.3 µM; with RPMI-8226 leukemia, 18.3 µM; with ACHN renal it was 21 µM; in the assay on OVCAR-4 ovarian it was 24.4 µM; in the assay on NCI-H460 lung, 40.8 µM; in the assay with CCRF-CEM leukemia, 4.44 µM. Besides, the TGI in the assay on HOP-62 NSCLC was 32.6 µM; in the assay on EKVX NSCLC, 32 µM; in the assay on K-562 leukemia, 17 µM; in the assay with SW-620 colon it was 34.4 µM.
